Values quoted from earlier work as cited in patent US20100311674A1, “PHARMACEUTICAL COMPOSITIONS WITH A MECHANISM OF MULTI-TARGET RECEPTOR RETROACTION FOR TREATING DEPRESSION” (Yu-Fen Chi, priority 2007, published 2010).

How the values were obtained:
[1] = cited from earlier work
[2] = in the human body; cited from earlier work

SMILES	Anti-depression function (in words) ([1]; clinical trials)	Side effect (in words) ([1]; in vivo)	Conversion rate of glycyrrhizic acid to glycyrrhetinic acid [2]
COc1ccc(C2CNC(=O)C2)cc1OC1CCCC1 (stereo not drawn) [Rolipram]	obvious anti-depression function	severe emesis	
CC1(C)[C@@H](O[C@H]2O[C@H](C(=O)O)[C@@H](O)[C@H](O)[C@H]2O[C@@H]2O[C@H](C(=O)O)[C@@H](O)[C@H](O)[C@H]2O)CC[C@]2(C)[C@H]3C(=O)C=C4[C@@H]5C[C@@](C)(C(=O)O)CC[C@]5(C)CC[C@@]4(C)[C@]3(C)CC[C@@H]12 [glycyrrhizic acid]			~100%
